Measured values reported in patent US20220323455A1, “FUSED HETEROCYCLIC DERIVATIVES AS ANTIVIRAL AGENTS” (priority 2019, published 2022).
Like-named read-outs stand apart in the source and are kept apart here.

What was measured:
[1] = Cytotoxicity in HepG2.117 cells (ATPlite Luminescence Assay); format: cell-based; settings: human, incubated for 3 days, cell viability, mean value, read-out: TOX-HepG2.117 CC50 (μM, mean value)
Protocol: Cytotoxicity of the compounds was tested using HepG2 or HepG2.117 cells, incubated for 3 days in the presence of compounds. The viability of the cells was assessed using the PERKIN ELMER ATPlite Luminescence Assay System.”

[2] = tested on: HBV; assay: Anti-HBV activity in HepG2.117 cell line (intracellular HBV DNA, real-time PCR); format: cell-based; settings: Hepatitis B virus, read-out: HBV-AVE-HepG2.117 EC50 (μM, mean value)
Protocol: The anti HBV activity was measured using the HepG2.117 cell line, a stable, inducibly HBV producing cell line, which replicates HBV in the absence of doxicycline (Tet-off system). The HepG2 cell line is available from ATCC® under number HB-8065. Transfection of the HepG2 cell line can be as described in Sun and Nassal 2006 Journal of Hepatology 45 (2006) 636-645 “Stable HepG2- and Huh7-based human hepatoma cell lines for efficient regulated expression of infectious hepatitis B virus”.
For the antiviral assay, HBV replication was induced, followed by a treatment with serially diluted compound in 96-well plates. After 3 days of treatment, the antiviral activity was determined by quantification of intracellular HBV DNA using real-time PCR and an HBV specific primer set and probe.

[3] = 72 h, HepG2.117 cells, 3 days of treatment, intracellular HBV DNA, mean value

`C[C@@H]1Cc2nn3c(c2CN1C(=O)c1ccc(Cl)c(Cl)c1)C(F)(F)C(O)CCC3` (stereo partly drawn) [Example C6, (3,4-Dichlorophenyl)[(3R)-11,11-difluoro-10-hydroxy-3-methyl-1,3,4,7,8,9,10,11-octahydro-2H-pyrido[4′,3′:3,4]pyrazolo[1,5-a]azepin-2-yl]methanone] showed a CC50 at 3 days [1] greater than 50 µM and an EC50 [2, 3] of 3.28 µM.

Molecule `C#C[C@@]1(O)CCC(F)(F)c2c3c(nn2C1)C[C@@H](C)N(C(=O)c1ccc(Cl)c(Cl)c1)C3` (single isomer, unassigned) [Example C11, (3,4-Dichlorophenyl)[(3R,8*S)-8-ethynyl-11,11-difluoro-8-hydroxy-3-methyl-1,3,4,7,8,9,10,11-octahydro-2H-pyrido[4′,3′:3,4]pyrazolo[1,5-a]azepin-2-yl]methanone] has a CC50 at 3 days [1] of 33.8 µM and an EC50 [2, 3] of 0.257 µM.

In the case of `C[C@@H]1Cc2nn3c(c2CN1C(=O)c1ccc(Cl)c(Cl)c1)C(F)(F)CC[C@@H](CO)C3` (single isomer, unassigned) [Example C12, (3,4-Dichlorophenyl)[(3R,8*R)-11,11-difluoro-8-(hydroxymethyl)-3-methyl-1,3,4,7,8,9,10,11-octahydro-2H-pyrido[4′,3′:3,4]pyrazolo[1,5-a]azepin-2-yl]methanone], the CC50 at 3 days [1] is reported as 32.7 µM and the EC50 [2, 3] is reported as 0.048 µM.

Work on `C[C@@H]1Cc2nn3c(c2CN1C(=O)c1ccc(Cl)c(Cl)c1)C(F)(F)CN(C)CC3` [Example C3, (3,4-Dichlorophenyl)[(3R)-11,11-difluoro-3,9-dimethyl-1,3,4,7,8,9,10,11-octahydro-2H-pyrido[4′,3′:3,4]pyrazolo[1,5-d][1,4]diazepin-2-yl]methanone] yielded a CC50 at 3 days [1] greater than 50 µM and an EC50 [2, 3] of 0.032 µM.

Work on `C[C@@H]1Cc2nn3c(c2CN1C(=O)c1ccc(Cl)c(Cl)c1)C(F)(F)CN(S(C)(=O)=O)CC3` [Example C4, (3,4-Dichlorophenyl)[(3R)-11,11-difluoro-9-(methanesulfonyl)-3-methyl-1,3,4,7,8,9,10,11-octahydro-2H-pyrido[4′,3′:3,4]pyrazolo[1,5-d][1,4]diazepin-2-yl]methanone] yielded a CC50 at 3 days [1] greater than 50 µM and an EC50 [2, 3] of 0.052 µM.

Work on `CC(=O)NCC1CCC(F)(F)c2c3c(nn2C1)CCN(C(=O)c1ccc(Cl)c(Cl)c1)C3` (stereo not shown) [Example C15, N-{[2-(3,4-dichlorobenzoyl)-11,11-difluoro-1,3,4,7,8,9,10,11-octahydro-2H-pyrido[4′,3′:3,4]-pyrazolo[1,5-a]azepin-8-yl]methyl}acetamide] yielded a CC50 at 3 days [1] greater than 50 µM and an EC50 [2, 3] of 0.221 µM.

Work on `C#C[C@]1(O)CCC(F)(F)c2c3c(nn2C1)C[C@@H](C)N(C(=O)c1ccc(Cl)c(Cl)c1)C3` (single isomer, unassigned) [Example C10, (3,4-Dichlorophenyl)[(3R,8*R)-8-ethynyl-11,11-difluoro-8-hydroxy-3-methyl-1,3,4,7,8,9,10,11-octahydro-2H-pyrido[4′,3′:3,4]pyrazolo[1,5-a]azepin-2-yl]methanone] yielded a CC50 at 3 days [1] of 36.9 µM and an EC50 [2, 3] of 0.078 µM.

`C[C@@H]1Cc2nn3c(c2CN1C(=O)c1ccc(Cl)c(Cl)c1)C(F)(F)CC[C@H](CO)C3` (single isomer, unassigned) [Example C13, (3,4-Dichlorophenyl)[(3R,8*S)-11,11-difluoro-8-(hydroxymethyl)-3-methyl-1,3,4,7,8,9,10,11-octahydro-2H-pyrido[4′,3′:3,4]pyrazolo[1,5-a]azepin-2-yl]methanone] showed a CC50 at 3 days [1] of 33.6 µM and an EC50 [2, 3] of less than 0.195 µM.

Molecule `C[C@@H]1Cc2nn3c(c2CN1C(=O)c1ccc(Cl)c(Cl)c1)C(F)(F)CC[C@@H](C(C)(C)O)C3` (single isomer, unassigned) [Example C14, (3,4-Dichlorophenyl)[(3R,8*R)-11,11-difluoro-8-(2-hydroxypropan-2-yl)-3-methyl-1,3,4,7,8,9,10,11-octahydro-2H-pyrido[4′,3′:3,4]pyrazolo[1,5-a]azepin-2-yl]methanone] has a CC50 at 3 days [1] of 5.76 µM and an EC50 [2, 3] of less than 0.195 µM.

`C[C@@H]1Cc2nn3c(c2CN1C(=O)c1ccc(Cl)c(Cl)c1)C(F)(F)CC[C@H](O)C3` (single isomer, unassigned) [Example C9, (3,4-Dichlorophenyl)[(3R,8*S)-11,11-difluoro-8-hydroxy-3-methyl-1,3,4,7,8,9,10,11-octahydro-2H-pyrido[4′,3′:3,4]pyrazolo[1,5-a]azepin-2-yl]methanone] gave a CC50 at 3 days [1] greater than 50 µM and an EC50 [2, 3] of 0.018 µM.

With `O=C(c1ccc(Cl)c(Cl)c1)N1CCc2nn3c(c2C1)C(F)(F)CCC(CNC(=O)C(F)(F)F)C3` (stereo not shown) [Example C17, N-{[2-(3,4-Dichlorobenzoyl)-11,11-difluoro-1,3,4,7,8,9,10,11-octahydro-2H-pyrido[4′,3′:3,4]-pyrazolo[1,5-a]azepin-8-yl]methyl}-2,2,2-trifluoroacetamide] the CC50 at 3 days [1] was 20 µM and the EC50 ([2]; HepG2.117, 72 h) was 0.326 µM.
